These results are taken from US12318449B2 (Rutgers, The State University of New Jersey, priority 2012, dated 2025).

In assay [1] the test system is C8161 human melanoma cells. As to the kind of experiment: Cell cycle analysis (propidium iodide flow cytometry). The note with it: for Sub G1: 8 Gy, 25 uM riluzole, average of 3 experiments. The format is cell-based. The method, then:
Cell pellets were fixed by drop-wise addition of ice-cold 70% ethanol and incubated overnight at 4° C. Fixed cells were washed twice with ice-cold PBS and resuspended in […] PBS. […] The experiment was repeated 3 times.
(In flow cytometry, cells or beads pass a laser one at a time.)

Assay [2] relates to glioma cells. As to the kind of experiment: γ-H2AX Western blot and γ-H2AX/53BP1 immunofluorescence. Type of assay: cell-based. (In general: A western blot detects proteins with antibodies after separation by electrophoresis.)
In assay [3] the test system is LN229 cells. Put plainly: ROS measurement by flow cytometry (2′,7′-dichlorodihydrofluorescein diacetate). Type of assay: cell-based. The note with it: 10 uM riluzole for various time periods versus vehicle. The protocol:
(§1) The cells were incubated with 2′,7′-dichlorodihydrofluorescein diacetate (Sigma) for 20 min at 37 deg.

Assay [4] relates to U87MG cells. The assay is described as above. The format is cell-based. The note with it: 10 uM riluzole for various time periods versus vehicle. The method, then:
as §1

Assay [5] deals with C8161 xenografts. The method, then:
Immunodeficient nude mice were purchased from Taconic. C8161 cells were injected into flanks bilaterally at 10^6 cells per site.

For assay [6], the system named is U87MG glioma cells. Put plainly: Western immunoblot for cleaved PARP. The note with it: riluzole 10, 25 or 50 μM for 4 days versus NT or vehicle. Type of assay: cell-based.
Assay [7] relates to C8161 hGRM1-positive human melanoma cells. The note with it: riluzole plus irradiation (2 or 4 Gy) compared with irradiation alone.
Description: Both sets of cells were irradiated at 2 or 4 Gy. Lysates were made at 24, 48, or 72 hours after irradiation. Protein lysates were prepared by washing cells with PBS, adding extraction buffer [50 mmol/L Tris, 150 mmol/L NaCl, 1 mmol/L EDTA (pH 8.0)], 1% NP40, 5% glycerol, 1 mmol/L Dithiothreitol, complete protease inhibitor cocktail (Roche), and phosphatase inhibitors I and II (Sigma). The samples were resolved in 10% gels (Bio-Rad), after which they were transferred onto nitrocellulose membranes. Membranes were blocked with 5% milk and 1% bovine serum albumin and then probed with antibodies against PARP and cleaved caspase-3. The same blot was probed with alpha-tubulin to show equal loading.
Cells were either treated with IR at 2 Gy (2) or 4 GY (4) or not treated (0). Lysates were made immediately after IR or at 24 hours after IR and probed with anti-PARP and anticleaved PARP antibodies to assess apoptotic cells. The same blot was probed with a-tubulin to show equal loading.
Assay [8] relates to hGRM1-positive C8161 human melanoma cells. The note with it: riluzole for 24 hours, then ionizing radiation; PE=12%. The method, then: (§2) hGRM1-expressing C8161 [wild type (wt) for RAS and BRAF] and UACC903 (wt for RAS, mutated B-RAF, V600E) human melanoma cell line and hGRM1-negative melanoma cell line UACC930 (wt for RAS, mutated B-RAF, V600E), were obtained from Dr. Mary J. C. Hendrix (Children's Memorial Research Center, Chicago, IL) and Dr. Jeffrey M. Trent (Translational Genomics Research Center, Phoenix, AZ), respectively. Cells were cultured in monolayer at 37° C. in a 5% CO2 humidified incubator, in RPMI (InVitrogen) supplemented with 10% fetal bovine serum (Sigma).
(§3) Cells were trypsinized for retrieval and plated on 100-mm plates and allowed to attach overnight for 20 hours. […] Cells were irradiated by a Gamma Cell 40 Exactor (MDS Nordion) irradiator and then incubated overnight (20 hours). Drug was aspirated and culture media replaced at 20 hours. Plates were then monitored for 10 to 21 days and stained with crystal violet for visual counting. Colonies which contained more than 50 cells were scored as clonogenic survivors.
(§4) All clonogenic assays and cell cycle analyses experiments were repeated 3 times and the triplicate results are shown.

Assay [9] deals with hGRM1-positive UACC903 human melanoma cells. The note with it: riluzole for 24 hours, then ionizing radiation; PE=19%. The method, then:
as §2, §3, §4

The subject of assay [10] is LN229 cell line. As to the kind of experiment: Western immunoblot for cleaved PARP. The note with it: experiments repeated as for U87MG. The format is cell-based.
For assay [11], the system named is U118MG cell line. Put plainly: Western immunoblot for cleaved PARP. Type of assay: cell-based. The note with it: experiments repeated as for U87MG.
Assay [12] concerns D3-mGRM1 cells. As to the kind of experiment: Immunofluorescence for 53BP1 and γ-H2AX foci in apoptosis-deficient cells. The note with it: treated for various time points up to 24 hours. Type of assay: cell-based, mouse. The source says: (§5) These treated cells were stained with γ-H2AX and 53BP1, both known to localize at sites of DNA double stranded breaks.
Assay [13] has as its system D3-vec cells. Described as above. The format is cell-based, mouse. The note with it: empty vector controls; treated for various time points up to 24 hours.
Description: as §5

The subject of assay [14] is C8161 xenografts. Put plainly: Murine xenograft model, cleaved caspase-3 immunohistochemistry. Type of assay: in vivo, nude mice. The protocol:
hGRM-positive C8161 cells (1×10^6) were injected into the flanks of 6-week-old nude mice (Taconic). […] At 24, 48, and 72 hours after the second dose of irradiation, mice in each group were sacrificed and tumor samples were removed. Half of the samples were snap-frozen for further molecular studies, and the other half was fixed in formalin for histologic analysis. The antibody to activated caspase-3 was utilized to visualize apoptotic cells. The average number of apoptotic cells per tumor was calculated by counting the apoptotic cells in 10 random highpowered fields.
Cleaved caspase-3 immunohistochemistry. Immunodeficient nude mice were purchased from Taconic. C8161 cells were injected into flanks bilaterally at 10^6 cells per site. Tumor size was measured with a vernier caliper. When tumor volumes reached 6 to 10 mm^3 the mice were randomly grouped into various treatments. Each treatment group consisted of 10 mice. […] At 24, 48, and 72 hours after the second dose of irradiation, mice in each group were sacrificed and tumor samples were removed. Half of the samples were snap-frozen for further molecular studies, and the other half was fixed in formalin for histologic analysis. The antibody to activated caspase-3 was utilized to visualize apoptotic cells.

For the compound `C=C1C[C@@H]2COC(=O)[C@]2(Cc2ccc3ccccc3c2)C1` [BAY 36-7620], the G2/M synchronization result in [1] (treatment of C8161 cells with the compound) was “no G2/M synchronization”.
Turning to `Nc1nc2ccc(OC(F)(F)F)cc2s1` [Riluzole, riluzole], the “co-localization of γ-H2AX and 53BP1 (immunofluorescence)” value in assay [2] was “Co-localization was demonstrated”. Moreover, in assay [2] (cell lysates), the “γ-H2AX Western blot (DNA damage)” value is on record as “caused DNA damage”. The “ROS (oxidation of fluorochrome fluorescence)” value in [3] and in [4] was “enhanced ROS” each time. Further, the “effect of the combination on growth of xenografts” value in [5] (riluzole (10 mg/kg) plus IR, 25 days of treatment) is recorded as “at least an additive effect”. The “DNA damage as measured by foci of gH2AX on immunohistochemistry” value in assay [5] (xenograft harvests, riluzole plus irradiation) is recorded as “markedly enhanced DNA damage”. The “levels of cleaved PARP” value in assay [6] is reported as “higher levels of cleaved PARP”; in [7], “further augmented levels of cleaved PARP”; in assay [10], “identical results”; in assay [11], “identical results”. The figures for the “dose-modifying factor (DMF)” value in [8] and in assay [9] were 1.48 and 1.30, respectively. The entries for the “Sub G1” value in [1] (Radiation followed by Riluzole) and in assay [1] (Riluzole followed by Radiation) were 24.91 and 3.59, respectively. Further, the G2/M fraction entry is recorded as “clear spike in the G2/M fraction” in [1] (cells treated with riluzole prior to irradiation) and “no such effect” in assay [1] (reverse sequence (irradiation before riluzole)). Besides, the “53BP1 and γ-H2AX foci (DNA double stranded breaks)” value in assay [12] is “induction of clear nuclear 53BP1 and γ-H2AX foci”; in assay [13], “not vector controls”. Moreover, the “number of apoptotic tumor cells (immunohistochemistry)” value in assay [14] (riluzole 10 mg/kg oral gavage plus 2 x 4 Gy irradiation versus irradiation alone or control groups, P<0.001) is “significant increase”; in [14] (riluzole plus irradiation versus riluzole alone, 24- and 48-hour time points, P<0.01) it was “significant difference”.
